pKi: −log10 of the molar value. Non-standard residues stand in square brackets, D forms with d. Residues, ends and D or L forms follow the SMILES beside them. *: point of attachment. Sta = CC(C)C[C@H](N)[C@@H](O)CC(=O)O; Isovaleryl = CC(C)CC(=O)*

The results in this text go back to article PMC6309945 (The FEBS journal, 2018).

Series [1] concerns human foreskin fibroblasts (HFF). The series can be described thus: MTT cytotoxicity assay. It counts as cell-based. On the technique in general: Formazan colour is commonly taken as a measure of viable cells.
Another series addresses plasmepsin II (PMII) (Plasmodium falciparum, UniProt P46925). Description: Fluorogenic substrate inhibition assay of mature soluble recombinant PMII. It counts as biochemical.

Sequence of plasmepsin II (PMII) (P46925 125-453): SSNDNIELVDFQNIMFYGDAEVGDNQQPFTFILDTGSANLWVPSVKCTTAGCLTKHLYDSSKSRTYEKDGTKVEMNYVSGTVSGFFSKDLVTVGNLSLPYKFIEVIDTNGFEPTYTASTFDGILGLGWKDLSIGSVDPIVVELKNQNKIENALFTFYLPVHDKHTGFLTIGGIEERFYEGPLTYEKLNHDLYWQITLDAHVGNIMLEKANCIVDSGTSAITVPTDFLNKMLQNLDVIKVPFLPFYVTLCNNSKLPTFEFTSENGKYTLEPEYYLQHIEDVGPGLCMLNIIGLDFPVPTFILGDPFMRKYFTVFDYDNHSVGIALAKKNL

For `Cc1cc(N(C)CCN(C)C)cc(C)c1OCC(=O)N[C@@H](Cc1ccccc1)[C@H](O)C(=O)N1CSC(C)(C)[C@H]1C(=O)N[C@H]1c2ccccc2C[C@H]1O` [KNI-10743], the “Cytotoxicity (cell viability, MTT)” value in series [1] (highest concentration tested 25 µM, continuous exposure for 2 consecutive days) is recorded as “no significant cytotoxicity”. Also, the Morphology of cells result in series [1] (light microscopy, compared to cisplatin-treated cells) is recorded as “remains intact”.

For orientation: pKi means the negative decadic logarithm of the Ki, by convention in mol/L. With `CC(C)CC(=O)N[C@H](C(=O)N[C@H](C(=O)N[C@@H](CC(C)C)[C@@H](O)CC(=O)N[C@@H](C)C(=O)N[C@@H](CC(C)C)[C@@H](O)CC(=O)O)C(C)C)C(C)C` [Pepstatin A] (Isovaleryl-VV[Sta]A[Sta]-OH), at plasmepsin II (PMII), the pKi was 10.15.
